Test systems include IGROV1 ovarian; HOP-62 NSCLC; SF-295 CNS; HT29 colon; MDA-MB-435; MCF7 breast; RXF 393 renal; UACC-257 melanoma; HCT-15 colon; HL-60(TB) leukemia.
Holding throughout (assay): DTP human tumour cell line panel, 48 h

Broadly, the GI50 is the concentration that inhibits growth by half. Usually TGI stands for the concentration giving total growth inhibition. High values mean lower sensitivity of the cells, low ones greater sensitivity of the cells.

Several values for one entry are separate records, joined by “and”; a condition that tells them apart may be missing. Identical values can stand only once.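 Dose response: 5 concentrations. Exposure: 48 h. Format: 96-well plates. Endpoint: linear interpolation; highest concentration if not reached. GI50 marks 50% less growth. The concentration for full growth arrest is given as TGI.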 Some results are limits rather than exact numbers.

Take `CN(C)CC1CCC2=C(C1=O)C(c1ccc(Cl)c(Cl)c1)C1=C(CCC(CN(C)C)C1=O)O2` (stereo not given): the GI50 in the test on IGROV1 ovarian was 4.54 µM; with HOP-62 NSCLC, 12.5 µM; in the test with SF-295 CNS, 16.9 µM; in the test on HT29 colon it was 8.57 µM; with MDA-MB-435 it was 4.81 µM; with MCF7 breast, 1.26 µM. For the same compound, the GI50 in the test with RXF 393 renal was 9.18 µM; in the test on UACC-257 melanoma, 5.14 µM; with HCT-15 colon, 8.75 µM; with HL-60(TB) leukemia, 0.773 µM. Further, the total growth inhibition concentration (TGI) in the test with IGROV1 ovarian was determined as 8.97 µM; with HOP-62 NSCLC it was 25.2 µM; in the test on SF-295 CNS, 30.5 µM; in the test on HT29 colon, 22.4 µM; with MDA-MB-435, 17.5 µM; with MCF7 breast, 3.27 µM. Moreover, the TGI with RXF 393 renal is 22.5 µM; with UACC-257 melanoma it was 10.8 µM; in the test with HCT-15 colon, 29.2 µM; with HL-60(TB) leukemia it was 3.53 µM.
Regarding `COc1ccc(Cl)c(Nc2nc3ccccc3nc2NS(=O)(=O)c2cccc(NC(=O)C(C)(C)N)c2)c1`, the GI50 in the test on IGROV1 ovarian is 1.41 µM and 0.686 µM; in the test with HOP-62 NSCLC, 4.66 µM and > 10 µM; in the test with SF-295 CNS, 4.7 µM and 2.56 µM; in the test on HT29 colon, 9.87 µM and 6.23 µM; in the test on MDA-MB-435, 11.5 µM and > 10 µM; in the test with MCF7 breast, 2.66 µM and 1.9 µM. In addition, the GI50 was 1.89 µM and 2.62 µM with RXF 393 renal; 12.1 µM and > 10 µM in the test with UACC-257 melanoma; 9.76 µM and 6.97 µM in the test on HCT-15 colon; 5.93 µM and 2.1 µM with HL-60(TB) leukemia. Also, the concentration for total growth inhibition (TGI) in the test on IGROV1 ovarian is 6.63 µM and 4.86 µM; in the test on HOP-62 NSCLC, 20 µM and > 10 µM; with SF-295 CNS, 18.8 µM and > 10 µM; in the test with HT29 colon it was 25.9 µM and > 10 µM; in the test on MDA-MB-435 it was 25.2 µM and > 10 µM; in the test with MCF7 breast, 16.8 µM and > 10 µM. Moreover, the TGI with RXF 393 renal is 9.03 µM and > 10 µM; in the test with UACC-257 melanoma, 25.1 µM and > 10 µM; with HCT-15 colon, 22 µM and > 10 µM; with HL-60(TB) leukemia, 20.7 µM and > 10 µM.
`O=C(Nc1ccc(Oc2cccc(F)c2)c(Cl)c1)c1cnccn1`: the GI50 in the test with IGROV1 ovarian was 1.83 µM; with HOP-62 NSCLC it was 0.973 µM; in the test with SF-295 CNS, 1.56 µM; in the test on HT29 colon, 0.234 µM; with MDA-MB-435, 0.149 µM; with MCF7 breast, 0.413 µM. Besides, the GI50 in the test on RXF 393 renal was 1.23 µM; in the test on UACC-257 melanoma it was 4.53 µM; with HCT-15 colon it was 0.28 µM; in the test with HL-60(TB) leukemia, 1.29 µM. Besides, the TGI was above 50 µM in the test with IGROV1 ovarian; above 50 µM in the test with HOP-62 NSCLC; above 50 µM in the test on SF-295 CNS; above 50 µM in the test with HT29 colon; 0.683 µM in the test with MDA-MB-435; above 50 µM in the test on MCF7 breast. The TGI is 3.72 µM in the test with RXF 393 renal, above 50 µM in the test with UACC-257 melanoma, above 50 µM in the test with HCT-15 colon and 3.72 µM with HL-60(TB) leukemia.
For the compound `Cc1ccc(C(=O)NC2CCC2)cc1-c1ccc(C(=O)NCC2CC2)cc1`, the GI50 in the test with IGROV1 ovarian, with HOP-62 NSCLC, in the test on SF-295 CNS, with HT29 colon, with MDA-MB-435 and with MCF7 breast was above 25 µM each time. In addition, the GI50 in the test with RXF 393 renal, in the test with UACC-257 melanoma, with HCT-15 colon and in the test with HL-60(TB) leukemia was above 25 µM in each case. In addition, the TGI in the test with IGROV1 ovarian, with HOP-62 NSCLC, in the test with SF-295 CNS, with HT29 colon, in the test with MDA-MB-435 and in the test with MCF7 breast was above 25 µM in each case. The TGI with RXF 393 renal, in the test with UACC-257 melanoma, in the test on HCT-15 colon and in the test with HL-60(TB) leukemia was above 25 µM in each case.
As to `c1ccc2[nH]c(-c3cc(-c4ccc5c(c4)OCO5)n[nH]3)nc2c1`, the GI50 in the test with IGROV1 ovarian was 3.66 µM; with HOP-62 NSCLC it was 8.46 µM; in the test with SF-295 CNS, 3.24 µM; in the test with HT29 colon it was 3.66 µM; in the test on MDA-MB-435 it was 3.12 µM; in the test on MCF7 breast, 3.78 µM. Besides, the GI50 was 2.36 µM in the test with RXF 393 renal, 6 µM in the test on UACC-257 melanoma, 3.86 µM in the test with HCT-15 colon and 2.27 µM with HL-60(TB) leukemia. In addition, the TGI with IGROV1 ovarian came to 15.9 µM; with HOP-62 NSCLC, 21.8 µM; in the test with SF-295 CNS, 14.6 µM; with HT29 colon, 15 µM; with MDA-MB-435, 15.6 µM; in the test on MCF7 breast it was 18.3 µM. Moreover, the concentration for total growth inhibition (TGI) with RXF 393 renal came to 12.1 µM; in the test with UACC-257 melanoma, 23.2 µM; with HCT-15 colon, 20.3 µM; with HL-60(TB) leukemia it was 20.2 µM.
`NC(=O)c1ccc(-c2nc(-c3ccc4c(c3)OCO4)c(-c3ccccn3)[nH]2)cc1`: the GI50 in the test with IGROV1 ovarian is > 25 µM and 34.2 µM; in the test on HOP-62 NSCLC, > 25 µM and 43 µM; in the test on SF-295 CNS, > 25 µM and 24.9 µM; with HT29 colon it was > 25 µM and 28.3 µM; in the test with MDA-MB-435 it was > 25 µM and 38.6 µM; in the test with MCF7 breast, > 25 µM and 31.9 µM. The GI50 in the test with RXF 393 renal was > 25 µM and 12.6 µM; in the test with UACC-257 melanoma it was above 64.3 µM; in the test with HCT-15 colon it was > 25 µM and 23 µM; in the test with HL-60(TB) leukemia it was > 25 µM and 29.6 µM. The TGI was above 100 µM in the test on IGROV1 ovarian; above 100 µM in the test with HOP-62 NSCLC; > 25 µM and 79.1 µM with SF-295 CNS; above 93.8 µM in the test with HT29 colon; above 100 µM in the test on MDA-MB-435; above 83.8 µM with MCF7 breast. Also, the TGI is > 25 µM and 49.4 µM in the test on RXF 393 renal; above 100 µM with UACC-257 melanoma; > 25 µM and 63.6 µM in the test on HCT-15 colon; > 25 µM and 69.1 µM with HL-60(TB) leukemia.
Regarding `O=C1NOC(c2ccc(O)cc2)(c2ccc(O)cc2)c2ccccc21`, the GI50 with IGROV1 ovarian, in the test on HOP-62 NSCLC, with SF-295 CNS, in the test on HT29 colon, in the test with MDA-MB-435 and in the test with MCF7 breast was above 100 µM throughout. The GI50 with RXF 393 renal, in the test on UACC-257 melanoma, in the test with HCT-15 colon and in the test with HL-60(TB) leukemia was above 100 µM each time. For the same compound, the TGI with IGROV1 ovarian, in the test on HOP-62 NSCLC, in the test with SF-295 CNS, with HT29 colon, in the test on MDA-MB-435 and in the test on MCF7 breast was above 100 µM in each case. The TGI in the test with RXF 393 renal, with UACC-257 melanoma, in the test on HCT-15 colon and in the test on HL-60(TB) leukemia was above 100 µM throughout.
